Data: patent publication US5968920A, “Compounds having a benzisoselen-azoline and -azine structure, method for preparing same and therapeutic uses thereof” (Oxis Isle of Man, Limited, priority 1994, dated 1999)

Legend:
[1] = tested on: endothelial cells; test: Absence of toxicity in a culture of endothelial cells in vitro (MTT); assay type: cell-based, human; conditions: no more than 10 μM, 24 or 48 hours
Method: Human endothelial cells were cultivated under the same conditions as those described for Example 18, in 96-hole plates.
When the cells were near confluence, they were incubated or not (control) for 24 or 48 hours in the presence of BXT-51056 or BXT-51072 incorporated into the culture medium at a concentration of no more than 10 μM. After 24 or 48 hours, the cells were rinsed three times with a PBS buffer and the viability of the cells was measured using the bromide of 3-(4,5-dimethylthiazol-2-yl)-2,5-diphenyl-2H-tetrazolium (MTT).

[2] = tested on: endothelial cells; test: Protection of endothelial cells against hydrogen peroxide (NO production after bradykinin); assay type: cell-based; conditions: Homo sapiens, Endothelial cell; compound 1 μM; hydrogen peroxide 100 μM; bradykinin 100 nM; read-out: recovery of the normal response to bradykinin (NO production)
Method: (§1) Human endothelial cells were cultivated at 37° C. in 6-hole plates or Petri dishes (35 mm diameter) in an atmosphere of saturated humidity constituted by a gaseous mixture of 95% air and 5% of CO2. The culture medium was constituted by a M 199 medium, pH=7.4, containing 20% of foetal calf serum, 2 mM of L-glutamine, 100 U/ml of penicillin and 100 μg/ml of streptomycin.
When the cells were confluent, they were incubated in the presence or absence (control) of a compound with general structure I in culture medium at a concentration of between 1 and 10 μM, all other conditions being the same. After washing the cells three successive times with a PBS buffer, they were incubated in the presence or absence (control) of hydrogen peroxide, 500 or 100 μM, in the reaction medium. The cells were then washed three times with PBS buffer. They were then stained using the May-Grunwald/Giemsa procedure which caused the nucleus to stain purple and the cytoplasm, light violet, or they were used to measure their ability to produce nitric oxide NO. (EDRF). The production of NO. by endothelial cells was made using a NO. electrode, after stimulation with bradykinin, 100 nM, using the procedure described by H. Tsukahara et al., (Biochem. and Biophys. Res. Comm., (1993), 193, pp 722-729).
Treatment with 100 μM hydrogen peroxide had no significant effect on cellular density. […]

[3] = Glutathione peroxidase activity, hydrogen peroxide; assay type: biochemical; conditions: compound 20 μM, pH = 7.3, 37° C., [GSH] = 2 mM
Method: (§2) To 1.5 ml of HEPES buffer, 50 mM, pH=7.3, containing 0.2 mM of DTPA, 0.144 mM of NADPH, 2.2 mM of reduced glutathione and 1.1 U/ml of glutathione disulfide reductase, pre-equilibrated for 2 minutes at 37° C., 100 μl of an ethanolic mother solution of the compound to be tested or 100 μl of absolute ethanol (blank) was added. Each compound was tested at a final concentration of 20 μM.
(§3) Subsequently, 50 μl of the following was added:
or hydrogen peroxide (H2 O2), 1.6 mM in ultrapure water;
(§4) or the hydroperoxide of linoleic acid (18:2-OOH) prepared using soya lipoxygenase (see M. O. Funk et al., Lipids, (1976), 11, pp 113-117), 3.3 mM in a water/methanol mixture, 85/15 (V/V). The glutathione peroxidase activity was measured at 37° C. by measuring the reduction in absorbance at 340 nm over 5 minutes. The initial enzymatic rate or activity was proportional to the slope of the plot of absorbance against time.
(§5) They are expressed in nmoles of hydroperoxide reduced per minute.

[4] = Glutathione peroxidase activity, linoleic acid hydroperoxide; assay type: biochemical; conditions: compound 20 μM, pH = 7.3, 37° C., [GSH] = 2 mM
Method: as §2, §3, §4, §5

[5] = Glutathione peroxidase activity, t-BuOOH as hydroperoxide; assay type: biochemical; conditions: compound 20 μM, pH = 7.3, 37° C., [GSH] = 2 mM
Method: as §2, §3
tertiobutyl hydroperoxide (t-BuOOH), 6.6 mM in ultrapure water;
as §4, §5

[6] = tested on: von Willebrandt factor (vWf); test: Protection of endothelial cells against interleukin 1 (von Willebrandt factor release); assay type: cell-based; conditions: Homo sapiens, Endothelial cell, 4 h, read-out: inhibition of increase in vWf liberation induced by IL-1
Method: (§6) Human endothelial cells were cultivated under the same conditions as those described for Example 18.
When the cells were near confluence, they were incubated for one hour in the presence or absence of the following compounds: BXT-51072, BXT-51077, each of these compounds being at 10 μM in culture medium containing 2% of foetal calf serum , all other conditions being the same. The cells were then washed three times with a PBS buffer. The cells which had not been pretreated by a compound were incubated in the presence or absence (control) of interleukin 1α (IL-1α), at 50 U/ml, in the same culture medium. […] After four hours of incubation, the von Willebrandt factor (vWf) in the culture medium was measured.

[7] = tested on: interleukin 8 (IL-8); test: Endothelial production of interleukin 8 induced by TNF-α; assay type: cell-based, human; conditions: 4 h
Method: as §6
When the cells were near confluence, they were incubated for one hour in the presence or absence of the following compounds: BXT-51072, BXT-51077 or ebselen. Each of these compounds was incorporated into culture medium containing 2% of foetal calf serum at 10 μM, all other conditions being the same. […] After four hours of incubation, the interleukin 8 (IL-8) in the culture medium was measured.

[8] = tested on: endothelial cells; test: Endothelial changes induced by PMN and TNF-α (von Willebrandt factor release); assay type: cell-based, human; conditions: BXT compounds 10 μM, pentoxifylline 50 μM; TNF-α 1 ng/ml; 3.5 h
Method: as §6
(§7) When the cells were near confluence, they were incubated for one hour in the presence or absence of the following compounds: BXT-51072, BXT-51077 or pentoxifylline. Compounds BXT-51072 and BXT-51077, each at 10 μM, and the pentoxifylline, at 50 μM, were incorporated in culture medium containing 2% of foetal calf serum, all other conditions being the same. […] Myeloperoxidase (MPO), an enzyme specifically contained in PMNs, was then measured in the cell lysates obtained to evaluate adhesion of the PMNs on the endothelial cells. The von Willebrandt factor (vWf) liberated in the culture medium by the endothelial cells was measured after three and a half hours of incubation, as a label of the changes in the cells.
(§8) Incubation of the endothelial cells in the presence of PMN and TNF-α led to a very significant increase in the quantity of MPO and vWf with respect to the respective controls (PMN alone, and endothelial cells alone respectively), meaning the adhesion of activated PMNs to the endothelial cells and changes in the latter.
(§9) They are expressed as the percentage inhibition by referring the MPO and vWf measurements to the respective concentrations of MPO and vWf determined when the endothelial cells were incubated with TNF-α and PMNs.

[9] = tested on: endothelial cells; test: Adhesion of PMN to endothelial cells induced by TNF-α (myeloperoxidase); assay type: cell-based, human; conditions: compound 10 μM vs pentoxifylline 50 μM; TNF-α 1 ng/ml
Method: as §6, §7, §8, §9

[10] = tested on: endothelial cells; test: Viability of endothelial cells subjected to linoleic acid hydroperoxide (MTT); assay type: cell-based, human; conditions: compound 4 μM, 1 h; 18:2-OOH 50 μM, 2 h; MTT after about twenty hours
Method: as §1, with “multi-hole” for “6-hole”, “dishes” for “dishes (35 mm diameter)”, “penicillin,” for “penicillin and”, “streptomycin and 1% by volume of a medium supplement containing heparin and a cell growth factor.” for “streptomycin.”
When the cells were near confluence, they were incubated for one hour in the presence or absence of one of the following compounds: BXT-51056, BXT-51072, BXT-51077, or ebelsen. Each of these compounds was incorporated at 4 μM into culture medium containing 2% of foetal calf serum, all other conditions being the same.
After washing the cells three successive times with a PBS buffer, they were incubated in the presence or absence (control) of linoleic acid hydroperoxide (18:2-OOH), 50 μM, in the culture medium defined above. […] After about twenty hours, the viability of the cells was determined by measurement using the bromide of 3-(4,5-dimethylthiazol-2-yl)-2,5-diphenyl-2H-tetrazolium (MTT).
The results are shown in FIG. 1, expressed as the survival percentage with respect to the control and where the reference is shown by the black rectangle.

[11] = prior art, Wendel 1984; Mercurio and Combs 1986; cited from earlier work
[12] = in the presence of excess glutathione GSH; cited from earlier work

## CC1(C)N[Se]c2ccccc21 [BXT-51056, 3,3-dimethyl-benzisoselenazoline]
[1]
  toxicity to endothelial cells: not toxic to endothelial cells
[2]
  activity at 1 µM: > 80%

## CC1(C)N[Se](=O)c2ccccc21 (centres unmarked) [BXT-51059]
[3]
  Glutathione peroxidase activity, H2 O2: 0.1 nmoles of hydroperoxide reduced/min
[4]
  Glutathione peroxidase activity, 18:2-OOH: 0.8 nmoles of hydroperoxide reduced/min
[5]
  Glutathione peroxidase activity, t--BuOOH: 0.2 nmoles of hydroperoxide reduced/min

## CC1(C)N[Se]c2ccc([N+](=O)[O-])cc21 [BXT-51075, 3,3'-dimethyl-5-nitro-benzisoselenazoline]
[3]
  Glutathione peroxidase activity, H2 O2: 5,9 nmoles of hydroperoxide reduced/min
[5]
  Glutathione peroxidase activity, t--BuOOH: 3,2 nmoles of hydroperoxide reduced/min

## COc1ccc2c(c1)C(C)(C)CN[Se]2 [BXT-51077, 4,4-dimethyl-6-methoxy-benzisoselenazine]
[6]
  inhibition at 10 µM: > 70%
[7]; Homo sapiens, read-out: inhibition of IL-8 production induced by TNF-α
  inhibition at 10 µM: ≥ 70%
[8]
  protection of endothelial cells against the deleterious effects of activated PMNs (vWf): protect endothelial cells against the deleterious effects of activated PMNs
[9]
  inhibition of the adhesion of PMN induced by TNF-α (MPO): inhibit the adhesion of PMN induced by TNF-α, much more effectively than pentoxifylline
[5]
  Glutathione peroxidase activity, t--BuOOH: 35.4 nmoles of hydroperoxide reduced/min
[10]
  protection of the cells from death induced by 18:2-OOH: significantly protected the cells from death

## CCN1CC(C)(C)c2ccccc2[Se]1 [BXT-51078, 4,4-dimethyl-2-ethyl-benzisoselenazine]
[5]
  Glutathione peroxidase activity, t--BuOOH: 16.5 nmoles of hydroperoxide reduced/min

## O=c1c2ccccc2[se]n1-c1ccccc1 [ebselen, 2-phenyl-3-one-benzisoselenazoline(2H)]
[7]; compound 10 μM, TNF-α 0.1, 1 or 10 ng/ml
  inhibition of IL-8 production induced by TNF-α (in words): no inhibiting effect
[11]
  toxic effect: do not appear to have a major toxic effect
[12]
  water solubility of the derivative produced with excess glutathione GSH: only very slightly soluble in water
